Assay results reported in ChEMBL document CHEMBL4118160, “Heterocycles: Versatile control elements in bioactive macrocycles” (Bioorg Med Chem, 2018).

Target: Integrin alpha-V/beta-3 (Homo sapiens, UniProt P05106+P06756)
Test: Inhibition of vitronectin binding to alphaVbeta3 integrin (unknown origin) measured after 3 hrs
Type: protein-complex assay

Chain of Integrin alpha-V/beta-3 (P05106 27-788 limits assumed): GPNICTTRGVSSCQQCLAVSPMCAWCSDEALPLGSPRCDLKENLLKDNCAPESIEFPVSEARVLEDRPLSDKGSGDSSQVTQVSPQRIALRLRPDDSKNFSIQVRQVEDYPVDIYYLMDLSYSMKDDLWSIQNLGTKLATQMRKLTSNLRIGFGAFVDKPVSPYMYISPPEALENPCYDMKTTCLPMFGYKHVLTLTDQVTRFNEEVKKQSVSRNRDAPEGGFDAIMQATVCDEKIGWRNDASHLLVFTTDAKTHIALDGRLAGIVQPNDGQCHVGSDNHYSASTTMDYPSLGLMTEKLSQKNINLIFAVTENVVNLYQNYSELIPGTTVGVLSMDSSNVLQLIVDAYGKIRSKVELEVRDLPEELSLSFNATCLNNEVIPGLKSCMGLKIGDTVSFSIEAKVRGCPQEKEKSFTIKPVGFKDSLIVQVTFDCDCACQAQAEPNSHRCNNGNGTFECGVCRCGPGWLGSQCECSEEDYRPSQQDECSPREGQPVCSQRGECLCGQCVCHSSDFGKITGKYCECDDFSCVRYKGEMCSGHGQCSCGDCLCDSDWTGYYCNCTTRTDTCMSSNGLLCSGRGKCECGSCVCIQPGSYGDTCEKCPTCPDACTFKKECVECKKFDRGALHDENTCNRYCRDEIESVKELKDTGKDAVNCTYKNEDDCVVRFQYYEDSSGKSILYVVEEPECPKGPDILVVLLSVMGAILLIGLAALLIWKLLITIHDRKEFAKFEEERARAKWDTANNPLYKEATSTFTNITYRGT
Chain of Integrin alpha-V/beta-3 (P06756 31-889 limits assumed): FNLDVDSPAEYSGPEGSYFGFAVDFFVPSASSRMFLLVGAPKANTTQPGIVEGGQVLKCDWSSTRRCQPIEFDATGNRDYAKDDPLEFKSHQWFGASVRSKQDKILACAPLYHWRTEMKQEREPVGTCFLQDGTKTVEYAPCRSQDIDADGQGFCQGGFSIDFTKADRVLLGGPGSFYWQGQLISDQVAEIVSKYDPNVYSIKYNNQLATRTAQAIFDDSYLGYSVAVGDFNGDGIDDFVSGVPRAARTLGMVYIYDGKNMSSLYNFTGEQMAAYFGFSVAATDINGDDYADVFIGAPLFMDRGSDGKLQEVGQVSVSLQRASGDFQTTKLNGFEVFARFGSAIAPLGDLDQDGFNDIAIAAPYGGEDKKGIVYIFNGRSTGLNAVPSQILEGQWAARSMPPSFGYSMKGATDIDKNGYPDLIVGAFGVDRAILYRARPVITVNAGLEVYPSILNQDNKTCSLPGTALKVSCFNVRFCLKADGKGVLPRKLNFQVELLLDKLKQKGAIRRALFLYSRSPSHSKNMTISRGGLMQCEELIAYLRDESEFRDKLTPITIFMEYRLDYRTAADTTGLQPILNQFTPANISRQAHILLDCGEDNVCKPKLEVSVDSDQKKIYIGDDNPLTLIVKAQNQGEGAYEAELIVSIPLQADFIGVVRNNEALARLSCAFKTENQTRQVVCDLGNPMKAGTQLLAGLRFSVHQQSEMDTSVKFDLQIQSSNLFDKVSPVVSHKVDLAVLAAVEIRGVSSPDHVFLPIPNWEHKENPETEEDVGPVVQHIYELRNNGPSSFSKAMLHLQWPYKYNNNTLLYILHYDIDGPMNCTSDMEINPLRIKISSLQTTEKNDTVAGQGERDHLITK
Chain of Integrin alpha-V/beta-3 (P06756 891-1048 limits assumed): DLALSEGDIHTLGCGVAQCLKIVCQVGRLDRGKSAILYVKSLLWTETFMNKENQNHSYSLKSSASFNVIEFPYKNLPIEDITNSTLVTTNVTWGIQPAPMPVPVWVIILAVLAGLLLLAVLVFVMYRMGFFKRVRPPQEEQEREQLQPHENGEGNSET

IC50 [nM]	Structure (SMILES)
≤ 150	N=C(N)NCCC[C@H]1NC(=O)CNC(=O)[C@@H](CC(=O)O)CN[C@H]2O[C@H](C1=O)[C@@H](OCc1ccccc1)[C@H](OCc1ccccc1)[C@H]2OCc1ccccc1
≤ 150	N=C(N)NCCC[C@H]1NC(=O)CNC(=O)[C@@H](CC(=O)O)CN[C@@H]2O[C@H](C1=O)[C@@H](OCc1ccccc1)[C@H](OCc1ccccc1)[C@H]2OCc1ccccc1
